Patent US20260176232A1, “PROBENECID COMPOUNDS FOR THE TREATMENT OF INFLAMMASOME-MEDIATED DERMATOLOGICAL CONDITIONS” (Bacainn Biotherapeutics, Ltd., priority 2022, published 2026)

Tested on: T1, ASC speck formation (inflammasome complex)
T1 construct: Flag; expressed in transfected cells; host or cells: NLRP3-deficient immortalized BMDMs
Test: Nigericin-induced ASC speck formation in ASC-cerulean/NLRP3 macrophages
Format: cell-based
Conditions: 350 μM, 60 mins before nigericin 3 μM 90 mins; about 20% of cells with nigericin alone
Protocol: FIGS. 5B-5D are pictures showing the ability of probenecid analogs of the present technology (e.g., BT032) to inhibit the formation of the inflammasome complex following NLRP3 activation. NLRP3-deficient immortalized BMDMs reconstituted with ASC-cerulean (pseudocolor RED) and NLRP3-Flag were either not stimulated (FIG. 5B) or stimulated with NLRP3 agonist nigericin (3 μM) for 90 mins (FIG. 5C). ASC-cerulean macrophages were also pretreated with BT032 (350 μM) for 60 mins prior to nigericin challenge (FIG. 5D). Macrophages were fixed with 4% paraformaldehyde and imaged for the formation of inflammasome specks as identified by intense, punctate staining in the cytosol of cells. Cell nuclei were stained with DAP (4′,6′-diamindino-2-phenylindole; BLUE). Representative images shown are maximum intensity projections of 3D deconvoluted z stacks using ImageJ.
FIG. 5E is a chart showing the number of ASC specks detected per field (6-7 fields per sample) compared to the total number of cells/field as determined by staining nuclei. Data is represented as a percentage of ASC-specks per field of view for each treatment group as outlined in FIGS. 5B-5D.
Methods. […] ASC-cerulean specks were counted for each field and as percentage of specks per field and represented as a percentage of total Hoechst positive cells.

T1 sequence (Q96P20 whole entry, one chain of several): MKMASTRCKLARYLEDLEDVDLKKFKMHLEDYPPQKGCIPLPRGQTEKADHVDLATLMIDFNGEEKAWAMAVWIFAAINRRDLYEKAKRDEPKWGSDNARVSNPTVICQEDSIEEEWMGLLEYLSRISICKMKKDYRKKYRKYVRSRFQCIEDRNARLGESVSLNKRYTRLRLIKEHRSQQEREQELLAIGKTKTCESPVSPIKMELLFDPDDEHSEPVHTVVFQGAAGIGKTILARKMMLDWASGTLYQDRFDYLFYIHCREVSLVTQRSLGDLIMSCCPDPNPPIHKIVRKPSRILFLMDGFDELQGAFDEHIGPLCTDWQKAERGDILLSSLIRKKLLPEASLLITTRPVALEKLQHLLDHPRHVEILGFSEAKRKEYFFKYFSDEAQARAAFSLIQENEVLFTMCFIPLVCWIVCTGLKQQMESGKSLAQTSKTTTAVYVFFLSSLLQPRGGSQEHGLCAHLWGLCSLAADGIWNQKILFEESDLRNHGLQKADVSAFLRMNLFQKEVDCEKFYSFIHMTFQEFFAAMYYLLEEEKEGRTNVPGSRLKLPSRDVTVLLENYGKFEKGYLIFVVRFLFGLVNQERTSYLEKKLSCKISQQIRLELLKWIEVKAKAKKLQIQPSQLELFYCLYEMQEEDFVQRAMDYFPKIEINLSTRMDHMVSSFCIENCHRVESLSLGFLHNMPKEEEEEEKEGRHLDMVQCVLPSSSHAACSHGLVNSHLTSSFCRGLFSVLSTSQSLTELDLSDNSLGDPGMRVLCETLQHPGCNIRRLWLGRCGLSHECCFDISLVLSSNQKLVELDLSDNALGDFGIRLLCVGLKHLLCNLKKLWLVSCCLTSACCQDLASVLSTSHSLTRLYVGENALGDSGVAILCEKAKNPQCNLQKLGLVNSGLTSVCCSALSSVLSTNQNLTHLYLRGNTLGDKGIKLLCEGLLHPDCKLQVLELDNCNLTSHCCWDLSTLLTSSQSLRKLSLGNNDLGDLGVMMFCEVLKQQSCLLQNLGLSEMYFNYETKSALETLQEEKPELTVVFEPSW

CCCN(CCC)S(=O)(=O)c1ccc(-c2ccc(CCCC(=O)O)cc2)cc1 [BT032, 4-(4′-(N,N-dipropylsulfamoyl)-[1,1′-biphenyl]-4-yl)butanoic acid]
ASC specks in cells: substantially reduced ASC specks
